Test results reported in US20060188867A1, “Method of cryopreserving cells and tissues by liposomal delivery of sugars to enhance post-thaw viability” (Canadian Blood Services, priority 2005, published 2006).

Tested on: red blood cells (RBCs)
Assay: flow cytometry of liposomal loading of carboxyfluorescein/trehalose into red blood cells, FIGS. 1A-1E
Assay type: cell-based, human
Conditions: no liposomes (FIG. 1C)
Experimental: However, it should be noted that the ratio of DPPC to cholesterol can, of course, be varied, as will be appreciated by those of ordinary skill in the art. The liposomes also have an aqueous core that can be composed of, by way of example only, 3.3 mM NaCl, 40 mM KCl, 1.7 mM glucose, 6.7 mM HEPES, 200 mM sucrose or trehalose and 100 μM 5(6)-carboxyfluorescein (CF). As it is known in the art, 5(6)-CF is an impermeable fluorescent marker with a molecular weight similar to that of sucrose and trehalose. This marker can be used to detect the liposome population using flow cytometry and is thus a useful and reliable indicator of loading efficiency. A single uniform population and intense FITC (Fluorescein isothiocyanate) peak verify liposome homogeneity and entrapment of the marker in the aqueous core.
In order to validate the methods described herein, human red blood cells and TF-1 (CRL2003, ATTC) cells were used as […] model systems. The mechanism of liposomal interaction with the cell is believed to be cell-type dependent and is believed to involve processes of adsorption, fusion and endocytosis.
FIGS. 1A to 1E are flow cytometry plots used to examine the effects of loading trehalose into red blood cells (RBCs). Liposomes composed of DPPC/cholesterol in the ratio of 70:30 were constructed so as to have a concentration of 0.29M trehalose inside and outside. […]

permeation of free CF into RBCs (fluorescence of RBCs in CF-containing media): cannot cross into RBCs
Substance: 5(6)-carboxyfluorescein [CF]
